The source of these data is ChEMBL document CHEMBL5727406, “Positive allosteric modulators of the GLP-1 receptor” (2019).

This experiment deals with Glucagon-like peptide 1 receptor (Homo sapiens, UniProt P43220). In words: GLP-1 Assay with EX-4 Synthetic Agonist: To assess the effects of test compounds on GLP-1 or glucagon potency and efficacy, a high-throughput calcium mobilization assay was used essentially as previously described (Morris L C, Days E L, Turney M, Mi D, Lindsley C W, Weaver C D, Niswender K D, A Duplexed High-Throughput Screen to Identify Allosteric Modulators of the Glucagon-Like Peptide 1 and Glucagon Receptors. J. Biomol. Screen. 2014 Feb. 13, 19(6):847-858). Briefly, human GLP-1R or Glucagon Receptor 9-3-H cells over-expressing a promiscuous G-protein (Millipore, Billerica, Mass.) were plated at 15,000 cells/well in black-walled 384-well plates (Greiner Bio-one, Monroe, N.C.) in Dulbecco's Modified Eagles Medium (DMEM) with 10% FCS, 4.0 mM L-glutamine, 1× non-essential amino acids (NEAAs), and 10.0 mM HEPES without antibiotics. After overnight attachment, cells were washed twice with assay buffer (HBSS supplemented with 20 mM HEPES and 1.0 mM probenecid) using an EL×405CW cell washer (Bio-Tek, Winooski, Vt.) and then loaded with the calcium sensitive dye fluo-4 AM (Invitrogen, Grand Island, N.Y.) at a final concentration of 2.0 μM in assay buffer. After a 45-minute incubation at room temperature, the dye was removed by washing, leaving 20 μL of assay buffer. […]. (Calcium flux is commonly read through the fluorescence of an indicator in the cells.)
Glucagon-like peptide 1 receptor, sequence (P43220 whole entry): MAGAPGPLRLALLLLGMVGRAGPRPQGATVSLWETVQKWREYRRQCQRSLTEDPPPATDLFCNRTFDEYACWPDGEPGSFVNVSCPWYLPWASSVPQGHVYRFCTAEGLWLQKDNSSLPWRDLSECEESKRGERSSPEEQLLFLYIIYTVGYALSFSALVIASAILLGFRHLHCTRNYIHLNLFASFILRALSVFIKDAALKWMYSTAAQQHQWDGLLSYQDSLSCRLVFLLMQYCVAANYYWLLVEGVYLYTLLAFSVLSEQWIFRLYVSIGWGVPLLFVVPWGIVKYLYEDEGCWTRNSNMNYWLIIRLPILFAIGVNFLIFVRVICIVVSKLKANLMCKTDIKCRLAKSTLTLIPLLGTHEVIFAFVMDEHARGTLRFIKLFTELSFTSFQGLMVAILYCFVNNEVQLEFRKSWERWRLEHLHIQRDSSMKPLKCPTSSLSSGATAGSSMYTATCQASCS

As usually defined, the EC50 is the concentration needed to bring the measured effect to its halfway point. `Cc1c2ccccc2n2c(C(=O)NC[C@H]3CCCN3C(C)C)cn(C3CCCC3)c(=O)c12`: the EC50 is over 30 µM.
